Test results reported in article PMC10041537, “Molecular origins of mutational spectra produced by the environmental carcinogen N-nitrosodimethylamine and SN1 chemotherapeutic agents” (NAR Cancer, 2023).
Where “and” joins values, the source holds several entries; their conditions need not be identical. Identical values can stand only once.

What was measured:
gpt reporter gene = format: in vivo, C57BL/6J gptΔ transgenic mice
Method: (§1) Most experiments utilized C57BL/6J gptΔ transgenic mice ([49],[50]), a gift from T. Nohmi. Some experiments used RaDR^R/R;gpt^g/g;Mgmt^−/− mice, which were created by crossing RaDR^R/R;gpt^g/gmice ([37]) with Mgmt^−/− mice ([51]). NDMA was synthesized and characterized as previously described ([52]) (Fig. S1). […] The first dose (3.5 mg/kg in 10 μl) was administered at 8 days of age, and the second dose (7 mg/kg in 20 μl) was administered at 15 days of age. Vehicle treated mice were administered equivalent volumes of saline. Mice were euthanized at ten weeks post-injection by CO2 inhalation. Both male and female mice were used in all experimental groups (n = 5) in all mouse experiments.
The gptΔ assay is the technology traditionally used with the gptΔ mouse to probe for small mutations in the 459 bp gpt transgene, of which approximately 160 copies exist in the mouse diploid genome ([50]). The gpt gene, which is not expressed in the mammalian cells, is contained in a λ-EG10 viral cassette that can be recovered ex vivo through a lambda packaging reaction.
The λ-EG10 phage was packaged in vitro from genomic DNA using a Transpack packaging extract (Agilent Technologies) and then transfected into E. coli YG6020 expressing Cre-recombinase, generating a 6.4 kb plasmid carrying the gpt and chloramphenicol acetyltransferase genes. These bacteria were cultured on selective media containing chloramphenicol (25 μg/ml, Sigma-Aldrich) and 6-TG (25 μg/ml, Sigma-Aldrich) or chloramphenicol alone. 6-TG resistance was confirmed by regrowth of colonies on plates containing chloramphenicol and 6-TG. The mutant frequency of each group was calculated (ratio of total 6-TG-resistant colonies to the average of chloramphenicol resistant colonies). The samples were processed and analyzed in a blinded fashion.
In this study, the gptΔ assay was performed on several tissues isolated from the mouse experiments. Specifically, the liver, kidneys, and lungs were collected at ten weeks following the second NDMA injection, flash frozen in liquid nitrogen, and stored at −80°C until analysis. Genomic DNA was extracted from ∼25 mg of liver tissue, one kidney, and whole lungs using the RecoverEase DNA Isolation Kit (Agilent Technologies).

liver, kidney, lung = test: Body and organ weights, macroscopic and histological analysis 10 weeks post NDMA treatment; format: in vivo, gptΔ C57BL/6J mice
Method: as §1
Sections of kidney and liver from mice ten weeks post treatment were fixed in 10% buffered formalin, embedded in paraffin, and sectioned at 5 μm thickness, stained with hematoxylin and eosin (H&E) by the MIT Division of Comparative Medicine Comparative Pathology Laboratory. H&E-stained sections of liver and kidney were scored by a Board-certified veterinary pathologist blinded to sample identity. Sections of liver were evaluated for the presence of hepatocellular degeneration (cell swelling with cytoplasmic alteration), fibrosis, and lipidosis using distribution-based ordinal scoring: 0 = normal, 1, uncommon detection in < 5% of liver fields (200×); 2, detectable in up to 5–20% of liver fields; 3, detectable in up to 20–65% of liver fields; 4, detectable in >65% of liver fields. The following criteria were used for scoring hepatic inflammation, necrosis, nuclear enlargement (karyomegaly), extramedullary hematopoiesis, Kupffer cell hyperplasia, Ito cell hyperplasia, and bile duct hyperplasia: 0 = normal; 1 = minimal (1–5 foci), 2 = mild (6–12 foci), 3 = moderate (13–18 foci), 4 = severe (>18 foci) (adapted from ([54])). A total inflammation score for each liver was generated by combining individual scores of portal, midzonal, and centrilobular inflammation from each submitted section. Sections of kidney were evaluated for the presence of inflammation, glomerulonephropathy, tubular necrosis, tubular degeneration, tubular regeneration, tubular casts and interstitial fibrosis. Slides were examined using an Olympus BX41 microscope attached with an iKona digital camera and photographed.

human = system: human; parameters: method as in PMID 21141240; conditions: cited from earlier work

Question: For `CN(C)N=O` [NDMA, N-nitrosodimethylamine], which “elevated mutation frequency, kidney” value (gpt reporter gene; kidney, 10 weeks after neonatal NDMA 10.5 mg/kg total i.p., vs controls) is on record?
Answer: Its value is roughly 2 fold.

Question: And the “change in mutant frequencies, kidney, males and females” value (gpt reporter gene; kidneys vs controls, only males significantly increased (P = 0.0079))?
Answer: Its value is “approximate doubling”.

Question: And the “elevated mutation frequency, liver” value (gpt reporter gene; liver, 10 weeks after neonatal NDMA 10.5 mg/kg total i.p., vs controls)?
Answer: Its value is roughly 35 fold.

Question: And the “increase in mutant frequency, liver, females” value (gpt reporter gene; livers of females vs controls, 10 weeks post-exposure, P = 0.0079)?
Answer: Its value is roughly 45 fold.

Question: What about the “increase in mutant frequency, liver, males” value (gpt reporter gene; livers of males vs controls, 10 weeks post-exposure, P = 0.0079) of the same molecule?
Answer: Its value is roughly 30 fold.

Question: What about the “elevated mutation frequency, lung” value (gpt reporter gene; lung, 10 weeks after neonatal NDMA 10.5 mg/kg total i.p., vs controls) of the same molecule?
Answer: Its value is ~4 fold and > 4 fold.

Question: What about the “macroscopic changes in organs” value (liver, kidney, lung; 10 weeks post treatment) of the same molecule?
Answer: Its value is “not observed”.

Question: And the “liver histology: hepatocellular degeneration” value (liver, kidney, lung; H&E, P = 0.0079)?
Answer: The value was “multifocal areas of periacinar (centrilobular to midzonal) hepatocellular degeneration”.

Question: And the “liver histology: nuclear enlargement” value (liver, kidney, lung; H&E, P = 0.0079)?
Answer: The value was “karyomegaly”.

Question: And the “body weights vs vehicle controls” value (liver, kidney, lung; at euthanasia, 10 weeks post treatment)?
Answer: The value was “no difference”.

Question: What about the lung-to-body weight ratio (liver, kidney, lung; females) of the same molecule?
Answer: Its lung-to-body weight ratio is “increased”.

Question: What about the kidney-to-body weight ratio (liver, kidney, lung; males) of the same molecule?
Answer: The kidney-to-body weight ratio was “increased”.

Question: What about the liver-to-body weight ratio (liver, kidney, lung; males) of the same molecule?
Answer: Its liver-to-body weight ratio is “decreased significantly”.

Question: And the IARC classification (human)?
Answer: Its IARC classification is “probable (Group 2A) human carcinogen”.
